Test system: p-Fak(Y397)
Test: Fak activation, western blot in PC3 cells
Assay type: cell-based, human
Conditions: serum deprived PC3 cells, 24 h, 10 μM
Experimental: If not indicated otherwise, cells were seeded and grown to 80% confluency and were treated with compound or control for 24 hours. Subsequently, the growth media was removed and the cells lysed by the addition of lysis buffer (25 mM Tris, pH 7.4; 1% NP-40, 0.25% deoxycholate, 1 mM sodium vanadate, 10 mM sodium fluoride, 10 mM sodium pyrophosphate, 20 mM β-glycerophosphate and 1× complete EDTA-free protease inhibitor cocktail (Roche)). After 20 minutes the mixture was spun down at 16,000×g for 10 minutes at 4° C. to pellet insoluble materials. Protein concentration of supernatants were determined via BCA assay (Thermo Fisher) before addition of NuPAGE sample buffer containing 5% β-Me and boiling at 95° C. for 10 minutes. Equal amounts of protein were subjected to SDS-PAGE and subsequent electrophoretic transfer onto nitrocellulose membrane. Rabbit antibodies were purchased from Cell Signaling: Fak (3285), p-Fak (3283), p-Paxillin (2541), p-Akt (S473)(4060), GAPDH (2118), Androgen Receptor (5153), p-Src(Y527)(2105), p-S6RP (2215). Mouse antibodies were purchased from Cell Signaling: tubulin (3873), S6RP (2317). Secondary antibody ∝-rabbit (31460) or ∝-mouse (31444) was coupled to horseradish peroxidase and purchased from Thermo Fisher. Immunoblots were developed using enhanced chemiluminescence and visualized using a Bio-Rad Chemi-Doc MP Imaging System and quantitated with Image Lab v.5.2.1 software (Bio-Rad Laboratories). Data analysis and statistics was performed using Prism 7.0 (GraphPad).
Fak levels are undetectable at concentrations of 100 nM through 1 μM of exemplary compound 102, and slightly rebound at concentrations of 5 μM (10%) and 10 μM (27%) due to an observed hook effect. […] Paxillin, a downstream target of the Fak-Src complex, has been associated with cell migration. […] Akt is a kinase that is tied to the Fak signaling cascade via PI3K, but can be activated through other pathways as well. […] A maximum p-Akt suppression of 93% is observed at 1 μM of exemplary compound 102. […]

CNC(=O)c1ccc(Nc2ncc(C(F)(F)F)c(NCc3nccnc3N(C)S(C)(=O)=O)n2)cc1 [Defactinib, defactinib, reference compound]
lowest level of p-Fak activity (remaining): 26%

Reference: patent US20200038513A1, “MODULATORS OF FAK PROTEOLYSIS AND ASSOCIATED METHODS OF USE” (ARVINAS OPERATIONS, INC., priority 2018, published 2020)
